Experimental data from paper PMC12916285 (Molecular Psychiatry, 2025).

System: Bdnf, Arc, Egr-1, Egr-2, Egr-3 mRNA in mouse PFC, HIP, mPFC
Assay: In vivo gene expression
Details: PFC and HIP, 30 min after 10 mg/kg i.p.

CN(C)CCc1c[nH]c2ccccc12 [DMT, dimethyltryptamine]
Expression of Egr-2 mRNA: significantly elevated expression
